What was measured:
P-gp [1] = test: P-gp expression in brain of WT mice (western blot, IFA of frozen section); assay type: in vivo, mouse
Experimental: (§1) HCMEC-D3 and HBMVEC cells were plated in 12-well plates and were grown until they reached 100% confluency. The media was replaced with fresh media containing 1 μM of Lexiscan® or NECA with proper vehicle control (DMSO) for up to 72 hours. Cells were lysed by lysis buffer […] containing protease inhibitor cocktail and stored for later use (−70° C.). For cytoskeletal fraction analysis, cells were lysed in CSK buffer (100 mM NaCl, 300 mM sucrose, 3 mM MgCl2, 10 mM PIPES, pH 6.8). For brain samples, half of the brain was homogenized and lysed with […] lysis buffer and centrifuged at 17,000 g for 20 minutes and 1:10 diluted samples were used for analysis. Sample was loaded on 7% SDS PAGE at 100 V for 1 hour and transferred to the nitrocellulose paper. It was blocked with 1% BSA and incubated with anti-P-gp antibody (Genetex, 1:2000) overnight. Subsequently, it was washed with TBST and incubated with anti-rabbit secondary antibody (1:2000) for 1 hour. It was washed with TBST and developed with ECL substrate and exposed to x-ray film. Anti-GAPDH or −β-actin antibody was used as loading control. The intensity of band was analyzed with densitometric analysis and plotted as a graph for analysis of time-course effect of AR signaling on P-gp expression.
Mice were treated with Lexiscan® or NECA at different time points and were infused with ice-cold PBS and sacrificed. Half of the brain was cut and put in the cassette and filled with OCT solution. Samples were snap-frozen with liquid nitrogen, cut with cryostat (10 μm) and fixed with acetone for 5 minutes, and incubated with C219 for P-gp stain (1:100) and Glut1 for endothelial cell marker (1:100) at 4° C. overnight. Sections were washed with PBS and additionally stained with secondary antibody conjugated with fluorochrome. Full images of the brain sections were visualized and recorded using Aperio Scan Scope (Leica Biosystems).

P-gp [2] = biological target: T1, P-gp (Mus musculus, UniProt P21447); test: Epirubicin brain accumulation assay; assay type: in vivo; details: mice
T1 construct: down-modulation of P-gp expression and function in brain vascular endothelial cells in WT mice; from tissue; host or cells: brain of WT mice
Experimental: FIG. 12A is a fluorescence microscopy image showing immunofluorescence images of brains from Lexiscan®-treated mice of WT brain at 15 and 30 minutes after Lexiscan® treatment. Frozen brain sections were stained with GLUT1 (red), or P-gp (green) and counterstained with DAPI (blue). FIG. 12B is a fluorescence microscopy image showing an enlarged image of FIG. 12A. FIG. 12C is a graph summarizing the experimental results of a brain epirubicin accumulation assay in the Lexiscan®- and vehicle-treated (control) mice. Briefly, 10 mg/kg of epirubicin was injected intravenously with or without 0.05 mg/kg of Lexiscan®. Mice were perfused with ice-cold PBS and sacrificed at different time points. The accumulation of epirubicin in the brain was measured using fluorometric excitation at 488 nm and emission at 590 nm. *P<0.05 (n=4, 2-tailed Student's t test). FIG. 12D are fluorescence microscopy images showing fluorescent microscopic analysis of epirubicin accumulation in the brains of mice treated with Lexiscan® or PSC833 (a functional P-gp inhibitor) compared with vehicle (control). 10 mg/kg of epirubicin was injected intravenously with or without 0.05 mg/kg of Lexiscan® or 50 mg/kg of PSC833 for 15 minutes. Mice were perfused with ice-cold PBS and sacrificed. Brain was sectioned for microscopic analysis for full-brain image, and focal zoomed image from cortex was laid as an inset. Epirubicin is in red, and nucleus was counterstained with DAPI (blue). FIG. 12E are graphs showing the quantified intensity of epirubicin from different regions of cortex (CTX), cerebellum (CRBL), and hippocampus (HPC) from brains of control, Lexiscan®-, or PSC833-injected animals and depicted as graphs. The scale bars indicate 100 μm in FIG. 12A; 50 μm in FIG. 12B, and 5 mm in FIG. 12D). ***P<0.001 (n=50, 2-tailed Student's t test).
FIG. 14A is a western blot of P-gp and BCRP1 from mouse brain at 2 and 18 hours after NECA treatment. FIG. 14B are graphs showing the enumeration of the expression intensity of P-gp and BCRP1 from the western blots shown in FIG. 14A. The intensity of the bands from NECA treatment group was divided by that of DMSO control. […] For fluorescence microscopy, frozen brain sections were stained with GLUT1 (red) or P-gp (green) and counterstained with DAPI (blue). […] The accumulation of epirubicin in the brain was measured using fluorometry, with excitation at 488 nm and emission at 590 nm. *P<0.05 (n=4, 2-tailed Student's t test).
For Lexiscan® study, 10 mg/kg of epirubicin was injected with or without Lexiscan® (0.05 mg/kg) at different time points, and mice were sacrificed. […] Samples were spun down at 17,000 g for 30 minutes, and the concentration for epirubicin was analyzed with fluorimetry with […].

P-gp [3] = test: Western blot of P-gp expression in primary mouse brain endothelial cells; assay type: cell-based; details: 1 μM, up to 72 hours
Experimental: Mice were sacrificed and meninges of brain were removed and ground using a plunger and centrifuged at 3,000 g for 5 minutes. The obtained pellet was dissolved in 18% dextran and centrifuged at 10,000 g for 10 minutes and digested with DMEM containing collagenase, DNAse, and dispase at 37° C. for 75 minutes. The sample was centrifuged for 5 minutes at 3,200 g, and the pellet was washed with warm PBS. The pellet was resuspended in DMEM/F12 with puromycin, heparin, 20% PDS, and 1-glutamine and plated onto the proper plate.
as §1, with “Sample was loaded on 7% SDS PAGE at 100 V for 1 hour and transferred to the nitrocellulose paper. It was blocked with 1% BSA and incubated with anti-P-gp antibody (Genetex, 1:2000) overnight. Subsequently, it was washed with TBST and incubated with anti-rabbit secondary antibody (1:2000) for 1 hour. It was washed with TBST and developed with ECL substrate and exposed to x-ray film. Anti-GAPDH or −β-actin antibody was used as loading control.” left out

P-gp [4] = test: Western blot of P-gp expression in primary human brain endothelial cells; assay type: cell-based; details: 1 μM, up to 72 hours
Experimental: as §1

BCRP1/ABCG2 = test: BCRP1 expression in brain of WT mice (western blot); assay type: in vivo, mouse
[5] = Lexiscan® treatment, 5 to 60 minutes

T1 sequence (P21447 whole entry): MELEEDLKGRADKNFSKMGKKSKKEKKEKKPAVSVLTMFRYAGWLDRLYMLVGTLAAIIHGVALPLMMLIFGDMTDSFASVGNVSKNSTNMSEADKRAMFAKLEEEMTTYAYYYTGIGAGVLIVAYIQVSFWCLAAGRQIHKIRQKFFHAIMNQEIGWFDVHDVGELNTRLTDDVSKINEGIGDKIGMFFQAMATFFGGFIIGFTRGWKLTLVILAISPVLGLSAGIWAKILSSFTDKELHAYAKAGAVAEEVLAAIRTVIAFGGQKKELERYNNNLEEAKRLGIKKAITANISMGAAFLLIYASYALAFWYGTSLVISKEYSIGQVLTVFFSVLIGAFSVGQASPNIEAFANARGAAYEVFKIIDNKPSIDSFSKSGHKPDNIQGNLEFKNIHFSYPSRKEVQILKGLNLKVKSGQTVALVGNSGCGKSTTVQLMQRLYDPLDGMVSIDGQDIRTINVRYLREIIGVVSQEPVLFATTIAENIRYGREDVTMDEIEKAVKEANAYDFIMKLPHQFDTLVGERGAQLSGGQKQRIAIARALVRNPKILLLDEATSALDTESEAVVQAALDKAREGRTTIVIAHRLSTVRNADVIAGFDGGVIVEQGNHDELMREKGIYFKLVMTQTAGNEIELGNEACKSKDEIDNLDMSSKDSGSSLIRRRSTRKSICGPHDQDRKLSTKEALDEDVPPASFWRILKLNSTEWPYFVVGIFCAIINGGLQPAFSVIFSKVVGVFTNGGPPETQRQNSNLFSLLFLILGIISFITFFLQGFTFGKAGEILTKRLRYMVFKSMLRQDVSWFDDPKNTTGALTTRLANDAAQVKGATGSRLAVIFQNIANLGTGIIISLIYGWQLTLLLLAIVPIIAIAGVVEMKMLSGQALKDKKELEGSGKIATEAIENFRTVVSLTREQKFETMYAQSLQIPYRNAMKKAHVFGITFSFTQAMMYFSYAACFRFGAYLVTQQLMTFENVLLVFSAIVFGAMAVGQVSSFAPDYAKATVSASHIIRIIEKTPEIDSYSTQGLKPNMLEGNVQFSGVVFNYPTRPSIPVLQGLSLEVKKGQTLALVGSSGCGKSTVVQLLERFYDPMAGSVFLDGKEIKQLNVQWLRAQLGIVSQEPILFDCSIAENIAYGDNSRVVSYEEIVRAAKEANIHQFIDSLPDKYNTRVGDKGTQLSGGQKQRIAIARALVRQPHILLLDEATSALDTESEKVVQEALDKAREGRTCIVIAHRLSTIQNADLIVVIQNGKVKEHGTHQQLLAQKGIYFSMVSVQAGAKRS

CCNC(=O)[C@H]1O[C@@H](n2cnc3c(N)ncnc32)[C@H](O)[C@@H]1O [NECA, (2S,3S,4R,5R)-5-(6-aminopurin-9-yl)-N-ethyl-3,4-dihydroxyoxolane-2-carboxamide]
P-gp expression level in brain (P-gp [1]; 2 and 18 hours after NECA): gradual decrease in P-gp expression level, beginning at 2 hours; this was maintained for up to 18 hours
Epirubicin accumulation in the brain (fluorometry) (P-gp [2]; 0.08 mg/kg NECA i.v., then 10 mg/kg epirubicin i.v. for 15 minutes): showed epirubicin accumulation in the brain that matched the kinetics of P-gp decrease
P-gp expression (western blot, normalized to GAPDH) (P-gp [3]): P-gp expression decreased very rapidly and remained down-modulated for up to 4 hours
P-gp expression (western blot, vs DMSO control) (P-gp [4]): began to decrease at 30 minutes and was maintained for up to 48 hours and recovered by 72 hours
BCRP expression level in brain (BCRP1/ABCG2; 2 and 18 hours after NECA): not significantly affected

CNC(=O)c1cnn(-c2nc(N)c3ncn([C@@H]4O[C@H](CO)[C@@H](O)[C@H]4O)c3n2)c1 [Lexiscan®, 1-[6-amino-9-[(2R,3R,4S,5R)-3,4-dihydroxy-5-(hydroxymethyl)oxolan-2-yl]purin-2-yl]-N-methylpyrazole-4-carboxamide]
Time at which effect on P-gp occurred (P-gp [1]): ≤ 5 min
P-gp expression in brain endothelial cells (P-gp [1]; [5]): decreased P-gp expression in brain endothelial cells in WT mice between 5 and 15 minutes; this was recovered by 30 minutes
Epirubicin fluorescent intensity in brain sections (cortex, cerebellum, hippocampus) (P-gp [2]; 10 mg/kg epirubicin i.v. with 0.05 mg/kg Lexiscan® or 50 mg/kg PSC833 for 15 minutes): Significant epirubicin intensity in the cerebral cortex, the cerebellum, and the hippocampus
Epirubicin accumulation in the brain (fluorometry) (P-gp [2]; 10 mg/kg epirubicin i.v. with 0.05 mg/kg Lexiscan®, different time points): began to increase at 5 minutes; this was maintained up to 30 minutes and returned to baseline by 60 minutes
P-gp expression (western blot, normalized to GAPDH) (P-gp [3]): rapid down-modulation of P-gp beginning at 30 minutes, which was maintained for up to 1 hour
P-gp expression (western blot, vs DMSO control) (P-gp [4]): rapid down-modulation of P-gp expression, which began to decrease at 15 minutes and was maintained at a decreased level for up to 4 hours
Time at which effect on BCRP occurred (BCRP1/ABCG2): 15 min
BCRP expression in brain (BCRP1/ABCG2; [5]): potently down-regulated BCRP expression by 15 minutes, after which its expression began to recover by 60 minutes

— US10953015B2, “Use of adenosine receptor signaling to regulate P-gp function” (CORNELL UNIVERSITY, priority 2016, dated 2021)
